Test results: US8741897B2, “Glucocorticoid mimetics, methods of making them, pharmaceutical compositions and uses thereof” (Boehringer Ingelheim Pharmaceuticals Inc., priority 2003, dated 2014)

These compounds were tested against T1, human glucocorticoid receptor (GR) complex (Homo sapiens, UniProt P04150) (assay: Glucocorticoid receptor competitive binding assay (fluorescence polarization, TAMRA-labeled dexamethasone probe)). Conditions: compounds of Formula (IA).
T1 construct: made in house; host or cells: insect expression system (baculovirus lysate)
T1 sequence (P04150 1-777): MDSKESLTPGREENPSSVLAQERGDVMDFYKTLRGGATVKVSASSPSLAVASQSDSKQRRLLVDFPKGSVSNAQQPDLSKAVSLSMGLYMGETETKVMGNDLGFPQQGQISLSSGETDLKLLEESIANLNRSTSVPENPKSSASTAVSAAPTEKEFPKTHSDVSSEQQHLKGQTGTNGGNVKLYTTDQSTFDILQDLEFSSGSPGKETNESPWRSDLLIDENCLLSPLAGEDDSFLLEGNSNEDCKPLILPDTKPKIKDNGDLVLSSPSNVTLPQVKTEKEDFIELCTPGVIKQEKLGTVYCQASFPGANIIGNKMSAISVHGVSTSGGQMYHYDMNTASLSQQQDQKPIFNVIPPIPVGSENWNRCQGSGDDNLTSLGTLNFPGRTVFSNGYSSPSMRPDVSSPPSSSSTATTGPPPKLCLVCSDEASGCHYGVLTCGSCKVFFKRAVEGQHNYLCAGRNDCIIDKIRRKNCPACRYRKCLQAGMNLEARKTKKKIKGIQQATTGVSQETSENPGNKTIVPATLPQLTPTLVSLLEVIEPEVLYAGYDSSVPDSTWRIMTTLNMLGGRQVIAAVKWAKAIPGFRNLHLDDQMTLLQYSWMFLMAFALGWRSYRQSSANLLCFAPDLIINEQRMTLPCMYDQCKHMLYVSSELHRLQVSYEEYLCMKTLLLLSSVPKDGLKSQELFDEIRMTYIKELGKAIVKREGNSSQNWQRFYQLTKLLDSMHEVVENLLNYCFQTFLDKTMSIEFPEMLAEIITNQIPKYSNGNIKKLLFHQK
Procedure: Compounds of the invention were evaluated for binding to the steroid receptor by a fluorescence polarization competitive binding assay. Detailed descriptions for preparation of recombinant glucocorticoid receptor (GR) complex used in the assay is described in U.S. patent application Pub.
A. Glucocorticoid Receptor Competitive Binding Assay
Step 1. Characterization of the Fluorescent Probe
The wavelengths for maximum excitation and emission of the fluorescent probe should first be measured. An example of such a probe is rhodamine (TAMRA)-labeled dexamethasone.
The affinity of the probe for the steroid receptor was then determined in a titration experiment. The fluorescence polarization value of the probe in assay buffer was measured on an SLM-8100 fluorometer using the excitation and emission maximum values described above. Aliquots of expression vector lysate were added and fluorescence polarization was measured after each addition until no further change in polarization value was observed. Non-linear least squares regression analysis was used to calculate the dissociation constant of the probe from the polarization values obtained for lysate binding to the probe.
Step 2. Screening for Inhibitors of Probe Binding
This assay uses fluorescence polarization (FP) to quantitate the ability of test compounds to compete with tetramethyl rhodamine (TAMRA)-labeled dexamethasone for binding to a human glucocorticoid receptor (GR) complex prepared from an insect expression system. The assay buffer was: 10 mM TES, 50 mM KCl, 20 mM Na2MoO4.2H2O, 1.5 mM EDTA, 0.04% w/v CHAPS, 10% v/v glycerol, 1 mM dithiothreitol, pH 7.4. Test compounds were dissolved to 1 mM in neat DMSO and then further diluted to 10× assay concentration in assay buffer supplemented with 10% v/v DMSO. Test compounds were serially diluted at 10× assay concentrations in 10% DMSO-containing buffer in 96-well polypropylene plates. Binding reaction mixtures were prepared in 96-well black Dynex microtiter plates by sequential addition of the following assay components to each well: 15 μL of 10× test compound solution, 85 μL of GR-containing baculovirus lysate diluted 1:170 in assay buffer, and 50 μL of 15 nM TAMRA-labeled dexamethasone. Positive controls were reaction mixtures containing no test compound; negative controls (blanks) were reaction mixtures containing 0.7 μM to 2 μM dexamethasone. […] IC50 values were determined by iterative non-linear curve fitting of the FP signal data to a 4-parameter logistic equation.

| Structure (SMILES) | activity in the GR binding assay |
| --- | --- |
| CC(C)(CC(O)(Cc1[nH]c2ccccc2c1Br)C(F)(F)F)c1cccc(F)c1 (stereo not shown) [2-(3-Bromo-1H-indol-2-ylmethyl)-1,1,1-trifluoro4-(3-fluorophenyl)-4-methylpentan-2-ol] | potent activity |
| COc1ccc(F)cc1C(C)(C)CC(O)(Cn1ccc2cccnc21)C(F)(F)F (stereo not shown) [1,1,1-Trifluoro-4-(5-fluoro-2-methoxyphenyl)-4-methyl-2-pyrrolo[2,3-b]pyridin-1-ylmethylpentan-2-ol] | potent activity |
| COc1ccc(F)cc1C(C)(C)CC(O)(Cc1cc(Cl)nc2ccc(Cl)cc12)C(F)(F)F (stereo not shown) [2-(2,6-Dichloroquinolin-4-ylmethyl)-1,1,1-trifluoro-4-(5-fluoro-2-methoxyphenyl)-4-methylpentan-2-ol] | potent activity |
| Cc1ccc(F)cc1C(C)(C)CC(O)(Cc1cc2cc(=O)[nH]cc2[nH]1)C(F)(F)F (stereo not shown) [2-[4-(5-Fluoro-2-methylphenyl)-2-hydroxy-4-methyl-2-trifluoromethylpentyl]-1,6-dihydropyrrolo[2,3-c]pyridin-5-one] | potent activity |
| COc1ccc(C)cc1C(C)(C)CC(O)(Cc1cc2c(C)cc(C#N)cc2[nH]1)C(F)(F)F (stereo not shown) [2-[2-Hydroxy-4-(2-methoxy-5-methylphenyl)-4-methyl-2-trifluoromethylpentyl]-4-methyl-1H-indole-6-carbonitrile] | potent activity |
| CC(C)(CC(O)(Cc1cc2cc(C(=O)O)ccc2[nH]1)C(F)(F)F)c1cc(Br)cc2c1OCC2 (stereo not shown) [2-[4-(5-Bromo-2,3-dihydrobenzofuran-7-yl)-2-hydroxy-4-methyl-2-trifluoromethylpentyl]-1H-indole-5-carboxylic acid] | potent activity |
| COc1ccc(F)cc1C(C)(C)CC(O)(Cc1cc2ccccc2s1)C(F)(F)F (stereo not shown) [2-Benzo[b]thiophen-2-ylmethyl-1,1,1-trifluoro-4-(5-fluoro-2-methoxyphenyl)-4-methylpentan-2-ol] | potent activity |
| CNC(=O)c1ccc2[nH]c(CC(O)(CC(C)(C)c3cc(F)ccc3OC)C(F)(F)F)cc2c1 (stereo not shown) [2-[4-(5-Fluoro-2-methoxyphenyl)-2-hydroxy-4-methyl-2-trifluoromethylpentyl]-1H-indole-5-carboxylic acid methylamide] | potent activity |
| COc1ccc(F)cc1C(C)(C)CC(O)(Cc1cc2cnccc2s1)C(F)(F)F (stereo not shown) [1,1,1-Trifluoro-4-(5-fluoro-2-methoxyphenyl)-4-methyl-2-thieno[3,2-c]pyridin-2-ylmethylpentan-2-ol] | potent activity |
| CC(C)(CC(O)(Cc1cc2ccc(C(=O)N3CCOCC3)cc2[nH]1)C(F)(F)F)c1cc(F)ccc1O (stereo not shown) [{2-[4-(5-Fluoro-2-hydroxyphenyl)-2-hydroxy-4-methyl-2-trifluoromethylpentyl]-1H-indol-6-yl}morpholin-4-ylmethanone] | potent activity |
| COc1ccc(F)cc1C(C)(C)CC(O)(Cc1ccncc1)C(F)(F)F (stereo not shown) [1,1,1-Trifluoro-4-(5-fluoro-2-methoxyphenyl)-4-methyl-2-pyridin-4-ylmethylpentan-2-ol] | potent activity |
| COc1ccc(F)cc1C(C)(C)CC(O)(Cc1cc2cc(C(=O)OCC[Si](C)(C)C)ccc2[nH]1)C(F)(F)F (stereo not shown) [2-[4-(5-Fluoro-2-methoxyphenyl)-2-hydroxy-4-methyl-2-trifluoromethylpentyl]-1H-indole-5-carboxylic acid-2-trimethylsilanylethyl ester] | potent activity |
| COc1ccc(F)cc1C(C)(C)CC(O)(Cc1cc2cc(C(=O)N3CCC(O)CC3)ccc2[nH]1)C(F)(F)F (stereo not shown) [{2-[4-(5-Fluoro-2-methoxyphenyl)-2-hydroxy-4-methyl-2-trifluoromethylpentyl]-1H-indol-5-yl}(4-hydroxypiperidin-1-yl)methanone] | potent activity |
| COc1ccc(F)cc1C(C)(C)CC(O)(Cc1cc2ccc(C(=O)N(C)C)cc2[nH]1)C(F)(F)F (stereo not shown) [2-[4-(5-Fluoro-2-methoxyphenyl)-2-hydroxy-4-methyl-2-trifluoromethylpentyl]-1H-indole-6-carboxylic acid dimethylamide] | potent activity |
| CC(C)(CC(O)(Cc1cc2ccccc2[nH]1)C(F)(F)F)c1cccc(-c2ccccc2)c1 (stereo not shown) [4-Biphenyl-3-yl-1,1,1-trifluoro-2-(1H-indol-2-ylmethyl)-4-methylpentan-2-ol] | potent activity |

The remaining lines, values ahead:

| activity in the GR binding assay | Structure (SMILES) |
| --- | --- |
| potent activity | CC(C)(CC(O)(Cc1cc2cnccc2s1)C(F)(F)F)c1cc(Cl)cc2c1OCC2 (stereo not shown) [4-(5-Chloro-2,3-dihydrobenzofuran-7-yl)-1,1,1-trifluoro-4-methyl-2-thieno[3,2-c]pyridin-2-ylmethylpentan-2-ol] |
| potent activity | CC(C)(CC(O)(Cc1ccnc2ccccc12)C(F)(F)F)c1ccncc1 (stereo not shown) [1,1,1-Trifluoro-4-methyl-4-pyridin-4-yl-2-quinolin-4-ylmethylpentan-2-ol] |
| potent activity | CC(C)(CC(O)(Cc1cc2cc(-c3ccccc3)ccc2[nH]1)C(F)(F)F)c1cc(F)cc2c1OCC2 (stereo not shown) [1,1,1-Trifluoro-4-(5-fluoro-2,3-dihydrobenzofuran-7-yl)-4-methyl-2-(5-phenyl-1H-indol-2-ylmethyl)pentan-2-ol] |
| potent activity | COc1ccc(F)cc1C(C)(C)CC(O)(Cc1cc2cc(C(=O)N3CCCCC3)ccc2[nH]1)C(F)(F)F (stereo not shown) [{2-[4-(5-Fluoro-2-methoxyphenyl)-2-hydroxy-4-methyl-2-trifluoromethylpentyl]-1H-indol-5-yl}piperidin-1-ylmethanone] |
| potent activity | COc1ccc(F)cc1C(C)(C)CC(O)(Cn1ccc2ncccc21)C(F)(F)F (stereo not shown) [1,1,1-Trifluoro-4-(5-fluoro-2-methoxyphenyl)-4-methyl-2-pyrrolo[3,2-b]pyridin-1-ylmethylpentan-2-ol] |
| potent activity | COc1ccc(F)cc1C(C)(C)CC(O)(Cc1cc2cc(C(=O)NCCCC(=O)O)ccc2[nH]1)C(F)(F)F (stereo not shown) [4-({2-[4-(5-Fluoro-2-methoxyphenyl)-2-hydroxy-4-methyl-2-trifluoromethylpentyl]-1H-indole-5-carbonyl}amino)butyric acid] |
| potent activity | CC(C)(CC(O)(Cc1cc2ccc(C(N)=O)cc2[nH]1)C(F)(F)F)c1cc(F)ccc1O (stereo not shown) [2-[4-(5-Fluoro-2-hydroxyphenyl)-2-hydroxy-4-methyl-2-trifluoromethylpentyl]-1H-indole-6-carboxylic acid amide] |
| potent activity | Cc1cccc2c(CC(O)(CC(C)(C)c3cc(F)ccc3O)C(F)(F)F)cc(Cl)nc12 (stereo not shown) [2-[3-(2-Chloro-8-methylquinolin-4-ylmethyl)-4,4,4-trifluoro-3-hydroxy-1,1-dimethylbutyl]-4-fluorophenol] |
| potent activity | CC(C)(CC(O)(Cc1cc2ccccc2[nH]1)C(F)(F)F)c1ccc(C(F)(F)F)cc1 (stereo not shown) [1,1,1-Trifluoro-2-(1H-indol-2-ylmethyl)-4-methyl-4-(4-trifluoromethylphenyl)pentan-2-ol] |
| potent activity | COc1ccc(F)cc1C(C)(C)CC(O)(Cc1cc2cc(C(=O)NCC(=O)O)ccc2[nH]1)C(F)(F)F (stereo not shown) [({2-[4-(5-Fluoro-2-methoxyphenyl)-2-hydroxy-4-methyl-2-trifluoromethylpentyl]-1H-indole-5-carbonyl}amino)acetic acid] |
